Molecular target: T1, Bile acid receptor (Homo sapiens, UniProt Q96RI1)
T1 sequence (Q96RI1 whole entry): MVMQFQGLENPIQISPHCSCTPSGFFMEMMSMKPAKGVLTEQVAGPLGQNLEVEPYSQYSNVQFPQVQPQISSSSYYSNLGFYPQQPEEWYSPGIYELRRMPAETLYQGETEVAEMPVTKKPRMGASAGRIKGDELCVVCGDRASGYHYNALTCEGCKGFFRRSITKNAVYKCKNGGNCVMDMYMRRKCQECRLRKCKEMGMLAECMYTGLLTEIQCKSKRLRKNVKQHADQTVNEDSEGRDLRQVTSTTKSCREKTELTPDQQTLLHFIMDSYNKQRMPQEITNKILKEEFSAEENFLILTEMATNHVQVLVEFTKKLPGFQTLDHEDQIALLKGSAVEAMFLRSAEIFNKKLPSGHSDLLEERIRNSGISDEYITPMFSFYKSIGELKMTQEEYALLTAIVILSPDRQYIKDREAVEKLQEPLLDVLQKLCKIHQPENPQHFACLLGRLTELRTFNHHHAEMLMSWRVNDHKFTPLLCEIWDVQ
Experiment: Agonist activity at farnesoid x receptor(unknown origin)

CNC(=O)O[C@@H](CC(C)C)c1nc([C@H]2OC(=O)/C(C)=C/C/C(C)=C/[C@@H](O)[C@@H](C)\C=C(C)/C=C(C)\C=C\[C@@H](O)[C@H](C)[C@H](OC)/C(C)=C/C=C/[C@@H]2C)cs1 [ARCHAZOLID A]
EC50: 200 nM

Source: ChEMBL document CHEMBL3813623, “Novel approaches to map small molecule-target interactions” (Bioorg Med Chem, 2016)
